From patent US20120003303A1, “ORAL ENTERIC ANTIDEPRESSANT FORMULATION” (CeNeRx Biopharma, Inc, priority 2009, published 2012)
Read-outs that look alike come from different tables or passages of the source.

Key:
[1] = human plasma pharmacokinetics of orally administered tyramine; type: in vivo
From the text: Such pharmaceutical formulations are manufactured in such a way that the product passes unchanged through the stomach of the patient, and dissolves and releases the active ingredient when it leaves the stomach and enters the middle and lower portions of the small intestine. Such formulations can be in tablet or pellet form, where the active ingredient is in the inner part of the tablet or pellet and is enclosed in a film or envelope, the “enteric coating,” which is insoluble in acid environments, such as the stomach, but is soluble in near-neutral environments such as the small intestine.

[2] = molecular target: T1, MAO-B (Homo sapiens, UniProt P27338); assay: inhibitory action on MAO-B (statement, no method given); type: biochemical
T1 sequence (P27338 1-520): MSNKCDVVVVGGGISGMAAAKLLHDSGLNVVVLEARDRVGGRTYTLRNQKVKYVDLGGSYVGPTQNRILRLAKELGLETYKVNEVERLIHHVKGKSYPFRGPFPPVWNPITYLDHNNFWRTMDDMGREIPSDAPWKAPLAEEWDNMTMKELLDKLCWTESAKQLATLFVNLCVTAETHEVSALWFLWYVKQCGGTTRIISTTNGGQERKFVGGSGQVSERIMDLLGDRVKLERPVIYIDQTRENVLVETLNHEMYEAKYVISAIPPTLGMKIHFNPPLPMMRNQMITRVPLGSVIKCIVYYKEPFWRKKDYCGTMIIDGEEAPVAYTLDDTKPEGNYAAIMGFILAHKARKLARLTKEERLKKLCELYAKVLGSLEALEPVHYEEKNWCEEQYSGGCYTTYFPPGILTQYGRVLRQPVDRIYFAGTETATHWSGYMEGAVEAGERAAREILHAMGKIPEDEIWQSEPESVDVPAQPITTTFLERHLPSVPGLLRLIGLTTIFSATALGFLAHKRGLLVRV

| SMILES | time after dosing at which non-detectable levels observed ([1]; human plasma, tyramine with food in a capsule, oral dose of 200 mg) | Tmax ([1]; human plasma, tyramine with food in a capsule, oral dose of 200 mg, read-out: Tmax) | Tmax ([1]; human, plasma, oral, 200 mg, dietary tyramine, absorbed and metabolized in stomach, upper small intestine and liver, read-out: average Tmax) | inhibitory actions on MAO-B [2] |
| --- | --- | --- | --- | --- |
| NCCc1ccc(O)cc1 [tyramine] | 3 to 4 h | ≤ 1.25 h | 1.25 h | – |
| O=S1(=O)c2ccc(F)cc2Oc2cc(OCC(F)(F)F)ccc21 [CX157, 3-fluoro-7-(2,2,2-trifluoroethoxy)phenoxathiin 10,10-dioxide] | – | – | – | devoid of inhibitory actions on MAO-B |
